Article PMC6394990, “Detailed characterization of the solution kinetics and thermodynamics of biotin, biocytin and HABA binding to avidin and streptavidin” (PLoS ONE, 2019)
Where two headings read alike, the source gives them in different places.

Experiments:
streptavidin (SAV) = biological target: T1, streptavidin (SAV) (Streptomyces avidinii, UniProt P22629); test: Stopped-flow association kinetics of dye-labeled biotin probes binding to streptavidin (F(t), rF(t); Arrhenius plots/global fitting); set-up: kcal/mol (from Arrhenius slope) / Eon for BFl: unit not given here; conditions: for half-time of association, rF¯(t): probe 20 nM
T1 construct: purchased Sigma Aldrich (St. Louis, MO)
T1 sequence (P22629 25-183): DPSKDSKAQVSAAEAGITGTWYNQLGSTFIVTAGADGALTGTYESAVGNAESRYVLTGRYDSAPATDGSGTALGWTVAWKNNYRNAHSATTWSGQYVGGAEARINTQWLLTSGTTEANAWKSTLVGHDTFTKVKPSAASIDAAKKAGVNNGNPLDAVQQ
Description: These reactions were carried out in a buffered solution of 10 mM Tris-HCl, 100 mM KCl, 2.5 mM MgCl2 and 1 mM CaCl2 at pH 8 and only AV-BcO reactions included pH 9 and 10. […] The deglycosylation of AV (for comparative association reactions) was carried out using the provided standard protocol with endoglycosidase H [47], both with and without incubation of a denaturant solution (2% SDS and 1M 2-mercaptoethanol).
The reactions were collected with the SF instrument, described previously. […] The AC(t) and DC(t) data were baseline corrected before obtaining the signal ratio (Eq 4) as a function of time (ρt).
The constant AGain is the instrumental amplitude gain and was evaluated by solving ρ(t) using the known steady state anisotropy (rss) of the complexes which is equivalent to the r(t) at t = ∞; and H, obtained from the equivalent grating factor (G) for the filters and photo multiplier tubes in the SF. For the probes used in here G was 0.82 and H = (1-G)/(1+G) = 0.099. Knowing Again and H, the AC(t) and DC(t) signals can be solved for r(t) and F(t) (Eqs 4 and 5) and the normalized fluorescence, F¯(t) , and corrected fluorescence anisotropy, rF¯(t), were obtained when F¯(0) and rF¯(0) were scaled to 1 at t = 0.
The F¯(t) (Eq 6) is equivalent to (I||) + 2 (I⊥) and proportional to quantum yield (QYi), molar absorptivity (εi) and to the formation or disappearance of the emitting species Xi(t); and rF¯(t) including the steady state anisotropies (rss) of each fluorescent species (Eq 7).
The possible reaction models were discriminated by the squared residuals of the observed and calculated association traces of both fluorescence and anisotropy fluorescence signals, F¯(t) and rF¯(t) , respectively.

avidin (AV) = biological target: T2, avidin (AV) (Gallus gallus, UniProt P02701); test: Time-resolved anisotropy, cone angle, AV complex; format: physicochemical
T2 construct: purchased Calbiochem (La Jolla, CA)
T2 sequence (P02701 25-152): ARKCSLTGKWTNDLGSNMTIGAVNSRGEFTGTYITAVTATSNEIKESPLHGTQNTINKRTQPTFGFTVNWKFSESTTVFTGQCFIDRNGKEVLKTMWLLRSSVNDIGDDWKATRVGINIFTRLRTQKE
Description: (§1) The lifetimes (τ), steady state anisotropies (rss), time-resolved anisotropies (rt) and quantum yields (QY) of the complexes (at 20 ± 0.1°C and pH 8) were collected with a dye-labeled B7 probe concentration of 20–40 nM and 1040–2080 nM of either protein (AV or SAV) to ensure that only one binding site in the tetramer was filled with a ligand (AB1 filling model).
The lifetimes were collected in a FluoTime100 fluorescence spectrometer (PicoQuant, GmbH, Berlin, Germany) with the excitation light source provided by a picosecond pulsed diode laser (PicoQuant, GmbH, Berlin, Germany) at 470 nm and 20 MHz. The emission was collected at 520 nm through a non-fluorescing 520 nm interference filter (Oriel Corp., Stratford, CT) followed by a liquid filter of 1cm path length containing 24 mM acetate buffered dichromate at pH 4, between the sample and detector to eliminate traces of excitation light. The fluorescence decays were fit by a nonlinear least-squares minimization based on the Marquardt algorithm embedded in the Fluofit software (PicoQuant GmbH). Twenty-eight decays were collected per sample, the decays were grouped in four sets, consisting of seven sample decays and one Instrument Response Function, IRF, for deconvolution proposes. The decay sets were globally fitted to mono- or bi-exponential decay models that were discriminated using the statistical parameter χ^2. The rt data were acquired with the fluorimeter described above equipped with a polarizer and an analyzer to acquire the parallel VV(t) and perpendicular VH(t) decays. The PicoQuant G factor was calculated according to: G = ∫HV(t)dt/∫HH(t)dt, where HV(t) and HH(t) were the decays collected with the emission polarizer selecting vertical and horizontal E-vector passing orientations, respectively, and the excitation polarizer set at horizontally position.
The r¯t values were calculated according to Eq 11 where the pre-exponential “f” corresponds to the slow phase that derives from the lifetime of the global motion (τG) which was fitted within a range of expected correlation time for the complex size; consequently, facilitating resolution of the fast correlation lifetime (τp) and the corresponding pre-exponential (1-f). r¯(t)=(1−f)∙exp(−t/τp)+f∙exp(−t/τG) (11) The f parameter was constrained to the observed rss (Eq 12) where F^(t) (Eq 13) is normalized (α1 + α2 = 1) and derived from the observed fluorescence decays of the complex. rss=0.4∫r¯(t)∙F^(t)dt (12) Where F^(t)=α1exp(−t/τ1)+α2exp(−t/τ2)/α1τ1+α2τ2 (13)
In a simple model, the transition moment is assumed to wobble within a cone of semi-apical angle Ω [59], where the cone axis is normal to the surface of a sphere that corresponds to the macromolecule. The angle Ω is calculated from Eq 14.

[1] = Steady-state anisotropy (rss), unbound probe; format: physicochemical
Description: as §1
The rss measurements were collected using the Giblin-Parkhurst modification of the Wampler-Desa method as described previously. The fluorescence signal was detected in a model A-1010 Alphascan fluorimeter (Photon Technologies, Inc., Birmingham, NJ) equipped with an R928 PMT (Hamamatsu, Bridgewater, NJ). The excitation was provided by an Ar^+ ion laser (Coherent Innova 70–4 Argon, Santa Clara, CA) at 488 nm and 5–10 mW of power incident on the sample. […] The fluorimeter G factor was determined using a film polarizer and analyzer with an excitation at 488 nm provided by a xenon arc lamp (model A1010, Photon Technologies Inc, Princeton, NJ). The dissociation reactions of dye-labeled B7 and protein complexes were monitored by fluorescence changes and were also collected in the fluorimeter described above.

NC(CCCCNC(=O)CCCC[C@@H]1SC[C@@H]2NC(=O)N[C@@H]21)C(=O)NCCCCCNC(=O)c1ccc(-c2c3cc(F)c(=O)cc-3oc3cc(O)c(F)cc23)c(C(=O)O)c1 (stereo partly shown) [BcO, Oregon green 488 Biocytin]
kon binding to SAV, fold faster than binding to AV (streptavidin (SAV); 25°C): 3.2 X | rate at 4C (logarithmic value) (streptavidin (SAV); 277.15 K, follows from the SAV line (m2, b2), protein not printed in the line): 16.3 | halftime, F¯(t) (streptavidin (SAV); BcO 20 nM, SAV 200 nM, 10°C): 200.6 ms | halftime, rF¯(t) (streptavidin (SAV); BcO 20 nM, SAV 200 nM, 10°C): 201.4 ms | halftime, r¯(t) (streptavidin (SAV); BcO 20 nM, SAV 200 nM, 10°C): 332.7 ms | b of the line y = m2x+b2 (streptavidin (SAV); SAV 2, reacting with BcO): 27.125 | slope, m of the line y = m2x+b2 (streptavidin (SAV); SAV 2, reacting with BcO, x = 1/Temp): -2995.5 | ln(k) (streptavidin (SAV); SAV, 10 (283.15 K)): 16.7 | k(average) (streptavidin (SAV); SAV, 10 (283.15 K), k (full value)): 1.73E+07 | k(average) (streptavidin (SAV); SAV, 10 (283.15 K), k (scaled)): 17.3 | ln(k) (streptavidin (SAV); SAV, 15 (288.15 K)): 16.8 | k(average) (streptavidin (SAV); SAV, 15 (288.15 K), k (full value)): 2.00E+07 | k(average) (streptavidin (SAV); SAV, 15 (288.15 K), k (scaled)): 20 | ln(k) (streptavidin (SAV); SAV, 20 (293.15 K)): 17.0 | k(average) (streptavidin (SAV); SAV, 20 (293.15 K), k (full value)): 2.40E+07 | k(average) (streptavidin (SAV); SAV, 20 (293.15 K), k (scaled)): 24 | ln(k) (streptavidin (SAV); SAV, 25 (298.15 K)): 17.2 | k(average) (streptavidin (SAV); SAV, 25 (298.15 K), k (full value)): 3.03E+07 | k(average) (streptavidin (SAV); SAV, 25 (298.15 K), k (scaled)): 30.3 | Ea^Forward (streptavidin (SAV); SAV, pH 8): 6.2 ± 0.4 kcal/mol | ΔG^ǂ (streptavidin (SAV); SAV, pH 8, forward): 3.9 ± 0.4 kcal/mol | ΔS^ǂ (streptavidin (SAV); SAV, pH 8, forward): 7.8 ± 0.4 cal/°K·mol | kcal/mol (from Arrhenius slope) (streptavidin (SAV); SAV, ph8): -9583 | slope (Arrhenius linear fit) (streptavidin (SAV); SAV, ph8): -4823.1 | kon (streptavidin (SAV); pH 8, SAV, pH 8, 10°C, read-out: kon): 1.73e+07 ± 600000 M⁻¹ s⁻¹ | kon (streptavidin (SAV); pH 8, SAV, pH 8, 15°C, read-out: kon): 2e+07 ± 1.2e+06 M⁻¹ s⁻¹ | kon (streptavidin (SAV); pH 8, SAV, pH 8, 20°C, read-out: kon): 2.4e+07 ± 1.6e+06 M⁻¹ s⁻¹ | kon (streptavidin (SAV); pH 8, SAV, pH 8, 25°C, read-out: kon): 3.03e+07 ± 2e+06 M⁻¹ s⁻¹ | half-time of association, rF¯(t) (streptavidin (SAV); SAV 200 nM, pH 8, 10°C): 202 ms | half-time of association, rF¯(t) (streptavidin (SAV); SAV 200 nM, pH 8, 15°C): 111 ms | half-time of association, rF¯(t) (streptavidin (SAV); SAV 200 nM, pH 8, 20°C): 79 ms | kon (streptavidin (SAV); read-out: kon, mono-exponential fit of F¯(t), BcO 20 nM, SAV 200 nM, 10°C): 1.73e+07 M⁻¹ s⁻¹ | kon (streptavidin (SAV); read-out: kon, mono-exponential fit of rF¯(t), BcO 20 nM, SAV 200 nM, 10°C): 1.72e+07 M⁻¹ s⁻¹ | kon (streptavidin (SAV); read-out: kon, mono-exponential fit of uncorrected anisotropy r¯(t), BcO 20 nM, SAV 200 nM, 10°C, ill-fitted signal): 1.04e+07 M⁻¹ s⁻¹ | Cone Angle Ω (avidin (AV); AV complex (AB1), 20°C): 50 ± 2 degrees | W (avidin (AV); complex with AV): 50 | rss, Unbound [1]: 0.023
